The results in this text go back to patent publication US9688654B2, “Compounds inhibiting leucine-rich repeat kinase enzyme activity” (Merck Sharp & Dohme Corp., priority 2013, dated 2017).

Assay type in all cases: biochemical
For assay [1], the target named is T1, LRRK2 (G2019S mutation, GST-LRRK2 (amino acids 970-2527)) (Homo sapiens, UniProt Q5S007, G2019S).
T1 construct: GST-LRRK2 (amino acids 970-2527); GST (N); purchased Life Technologies Corporation
The assay can be described thus: LRRK2 Km ATP LanthaScreen Assay. The settings on record: mean IC50. The procedure:
Unless otherwise noted, all LRRK2 IC50 data presented in tables refers to the LRRK2 Km ATP LanthaScreen™ Assay that is described in the Biological Assay section.
(§1) The data presented for the 5 mM and Km ATP LanthaScreen™ Assay represents mean IC50 values based on several test results and may have reasonable. deviations depending on the specific conditions and reagents used. Reagents for the LRRK2 5 mM and Km ATP LanthaScreen™ Assay were purchased from Life Technologies Corporation.
• a) 400 nl of a 1:2.15 serial dilution of test compound (98 μM top assay concentration) is spotted via Labcyte Echo to certain wells in a 384 well black, untreated plate. Control wells contain 400 nl of either DMSO or 400 nl of a known inhibitor in DMSO. • b) 10 μl of a 2.5 nM LRRK2 (G2019S mutation, GST-LRRK2 (amino acids 970-2527)) enzyme solution in 1× assay buffer (50 mM Tris pH 8.5, 10 mM MgCl2, 0.01% Brij-35, 1.0 mM EGTA, 2 mM DTT, 0.05 mM NaVO4) is added to all wells. • c) A 30 minute room temperature incubation is followed by addition of 10 μl […]) After a 35 minute room temperature incubation, 20 μl of TR-FRET Dilution Buffer (Invitrogen PV3756B) containing 4 nM Tb-labeled anti-phospho LRRKtide antibody and 20 mM EDTA is added to all wells. • e) Plates are incubated at room temperature for 1 hour and read on an Envision™ multi-mode plate reader with LanthaScreen™ settings. Results are analysed using Assay Data Analyzer. […] Results are analysed using Assay Data Analyzer.
On the technique in general: TR-FRET usually uses a lanthanide donor and a delayed reading to cut background.

For assay [2], the target named is T1, LRRK2 (G2019S mutation, GST-LRRK2 (amino acids 970-2527)). The assay can be described thus: LRRK2 5 mM ATP LanthaScreen Assay. The settings on record: mean IC50. The procedure:
as §1
LRRK2 5 mM ATP LanthaScreen™ Assay
• a) 400 nl of a 1:2.15 serial dilution of test compound (98 μM top assay concentration) is spotted via Labcyte Echo to certain wells in a 384 well black, untreated plate. Control wells contain 400 nl of either DMSO or 400 nl of a known inhibitor in DMSO. • b) 10 μl of a 2.5 nM LRRK2 (G2019S mutation, GST-LRRK2 (amino acids 970-2527)) enzyme solution in 1× assay buffer (50 mM Tris pH 8.5, 10 mM MgCl2, 0.01% Brij-35, 1.0 mM EGTA, 2 mM DTT, 0.05 mM NaVO4) is added to all wells. • c) A 30 minute room temperature incubation is followed by addition of 10 μl of 800 nM fluorescein labeled LRRKtide peptide substrate and 10 mM ATP solution in 1× assay buffer to all wells. • d) After a 35 minute room temperature incubation, 20 μl of TR-FRET Dilution Buffer (Invitrogen PV3756B) containing 4 nM Tb-labeled anti-phospho LRRKtide antibody and 20 mM EDTA is added to all wells. • e) Plates are incubated at room temperature for 1 hour and read on an Envision™ multi-mode plate reader with LanthaScreen™ settings. Results are analysed using Assay Data Analyzer. […] Results are analysed using Assay Data Analyzer.

For a further assay, the target named is T2, AURKB (Aurora B) (Homo sapiens, UniProt Q96GD4).
T2 construct: purchased Life Technologies Corporation
The assay can be described thus: Kinase selectivity, Z'-LYTE platform. The settings on record: 1 micromolar compound, read-out: percent inhibition AURKB (Aurora B).

The target in a further assay is T3, IRAK1 (Homo sapiens, UniProt P51617).
T3 construct: purchased Life Technologies Corporation
T3 sequence (P51617 whole entry): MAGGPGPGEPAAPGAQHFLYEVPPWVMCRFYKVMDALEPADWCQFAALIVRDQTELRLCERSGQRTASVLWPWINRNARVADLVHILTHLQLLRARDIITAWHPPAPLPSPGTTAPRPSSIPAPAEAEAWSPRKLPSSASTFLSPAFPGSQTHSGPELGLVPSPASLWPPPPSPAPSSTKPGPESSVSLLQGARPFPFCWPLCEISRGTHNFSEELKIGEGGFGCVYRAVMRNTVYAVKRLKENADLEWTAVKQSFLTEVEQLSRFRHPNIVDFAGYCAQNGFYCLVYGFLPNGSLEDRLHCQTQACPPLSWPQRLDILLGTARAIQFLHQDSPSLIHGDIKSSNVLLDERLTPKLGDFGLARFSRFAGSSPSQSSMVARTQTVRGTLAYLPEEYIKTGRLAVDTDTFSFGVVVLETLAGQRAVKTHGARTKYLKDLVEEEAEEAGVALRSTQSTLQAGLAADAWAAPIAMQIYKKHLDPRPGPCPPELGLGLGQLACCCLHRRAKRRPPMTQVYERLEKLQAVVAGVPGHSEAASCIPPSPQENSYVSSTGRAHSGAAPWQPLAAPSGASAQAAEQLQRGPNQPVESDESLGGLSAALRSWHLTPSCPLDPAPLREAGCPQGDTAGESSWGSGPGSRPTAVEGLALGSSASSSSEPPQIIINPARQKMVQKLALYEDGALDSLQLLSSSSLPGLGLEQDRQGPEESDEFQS
The assay can be described thus: Kinase selectivity, Adapta platform. The settings on record: 1 micromolar compound, read-out: percent inhibition IRAK1.

The target in a further assay is T4, JAK3 (Homo sapiens, UniProt P52333).
T4 construct: purchased Life Technologies Corporation
T4 sequence (P52333 1-1124): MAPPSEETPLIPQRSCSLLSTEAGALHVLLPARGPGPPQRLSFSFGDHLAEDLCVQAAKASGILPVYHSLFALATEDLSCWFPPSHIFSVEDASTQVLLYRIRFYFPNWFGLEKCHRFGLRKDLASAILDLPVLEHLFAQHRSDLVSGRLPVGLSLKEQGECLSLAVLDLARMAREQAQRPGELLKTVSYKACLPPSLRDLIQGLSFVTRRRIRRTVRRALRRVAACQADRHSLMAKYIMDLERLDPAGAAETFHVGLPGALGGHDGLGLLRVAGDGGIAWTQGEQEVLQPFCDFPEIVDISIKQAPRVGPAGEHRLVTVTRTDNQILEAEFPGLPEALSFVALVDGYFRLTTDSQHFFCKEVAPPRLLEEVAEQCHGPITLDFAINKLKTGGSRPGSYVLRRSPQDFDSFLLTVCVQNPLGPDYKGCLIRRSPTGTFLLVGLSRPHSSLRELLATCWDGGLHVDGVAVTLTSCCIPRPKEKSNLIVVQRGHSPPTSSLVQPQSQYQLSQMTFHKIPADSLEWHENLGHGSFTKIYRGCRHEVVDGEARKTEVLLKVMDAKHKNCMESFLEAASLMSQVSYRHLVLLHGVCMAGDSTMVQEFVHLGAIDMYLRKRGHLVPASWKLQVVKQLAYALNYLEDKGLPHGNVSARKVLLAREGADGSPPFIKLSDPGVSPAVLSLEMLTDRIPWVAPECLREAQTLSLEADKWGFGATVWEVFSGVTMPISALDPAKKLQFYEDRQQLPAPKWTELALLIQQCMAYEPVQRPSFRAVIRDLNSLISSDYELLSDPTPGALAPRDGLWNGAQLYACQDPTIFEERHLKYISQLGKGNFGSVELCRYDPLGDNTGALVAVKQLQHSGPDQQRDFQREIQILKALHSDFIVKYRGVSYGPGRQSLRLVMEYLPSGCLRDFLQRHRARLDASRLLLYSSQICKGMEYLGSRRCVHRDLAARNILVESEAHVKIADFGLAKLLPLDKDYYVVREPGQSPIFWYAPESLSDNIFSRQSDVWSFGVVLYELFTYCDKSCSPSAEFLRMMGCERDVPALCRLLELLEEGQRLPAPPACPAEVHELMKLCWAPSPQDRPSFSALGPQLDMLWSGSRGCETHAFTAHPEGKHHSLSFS
The assay can be described thus: Kinase selectivity, Z'-LYTE platform. The settings on record: 1 micromolar compound, read-out: percent inhibition JAK3.

In the next assay the target is T5, CDK1/cyclin B (Homo sapiens, UniProt P06493).
T5 construct: purchased Life Technologies Corporation
T5 sequence (P06493 whole entry): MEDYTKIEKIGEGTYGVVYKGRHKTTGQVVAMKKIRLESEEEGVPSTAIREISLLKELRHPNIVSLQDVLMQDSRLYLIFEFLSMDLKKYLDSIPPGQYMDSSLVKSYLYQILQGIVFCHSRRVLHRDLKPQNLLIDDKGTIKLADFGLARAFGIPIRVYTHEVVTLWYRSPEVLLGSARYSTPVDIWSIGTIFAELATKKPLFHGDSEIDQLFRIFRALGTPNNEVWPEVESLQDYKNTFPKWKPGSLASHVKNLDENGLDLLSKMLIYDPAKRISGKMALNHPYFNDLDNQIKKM
T5 sequence (P14635 whole entry partner): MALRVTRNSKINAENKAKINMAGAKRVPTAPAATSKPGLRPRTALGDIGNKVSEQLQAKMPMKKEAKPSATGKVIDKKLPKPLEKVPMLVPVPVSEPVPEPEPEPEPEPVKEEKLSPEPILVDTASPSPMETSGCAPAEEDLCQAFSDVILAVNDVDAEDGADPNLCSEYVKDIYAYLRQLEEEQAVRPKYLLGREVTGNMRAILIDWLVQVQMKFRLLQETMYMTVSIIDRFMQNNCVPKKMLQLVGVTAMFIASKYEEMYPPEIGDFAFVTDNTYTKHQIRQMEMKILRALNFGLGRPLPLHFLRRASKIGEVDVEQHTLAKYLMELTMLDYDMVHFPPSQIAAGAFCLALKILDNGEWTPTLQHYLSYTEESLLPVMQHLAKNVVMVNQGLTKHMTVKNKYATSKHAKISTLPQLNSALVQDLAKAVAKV
The assay can be described thus: Kinase selectivity, Z'-LYTE platform. The settings on record: 1 micromolar compound, read-out: percent inhibition CDK1/cyclin B.

The next assay has as its target T6, CHEK2 (CHK2) (Homo sapiens, UniProt O96017).
T6 construct: purchased Life Technologies Corporation
The assay can be described thus: Kinase selectivity, Z'-LYTE platform. The settings on record: 1 micromolar compound, read-out: percent inhibition CHEK2 (CHK2).

Another assay concerns the target T7, MAPK1 (ERK2) (Homo sapiens, UniProt P28482).
T7 construct: purchased Life Technologies Corporation
The assay can be described thus: Kinase selectivity, Z'-LYTE platform. The settings on record: 1 micromolar compound, read-out: percent inhibition MAPK1 (ERK2).

The target of a further assay is T8, DYRK1A (Homo sapiens, UniProt Q13627).
T8 construct: purchased Life Technologies Corporation
The assay can be described thus: Kinase selectivity, Z'-LYTE platform. The settings on record: 1 micromolar compound, read-out: percent inhibition DYRK1A.

A further assay has as its target T9, MAPK8 (JNK1) (Homo sapiens, UniProt P45983).
T9 construct: purchased Life Technologies Corporation
The assay can be described thus: Kinase selectivity, Z'-LYTE platform. The settings on record: 1 micromolar compound, read-out: percent inhibition MAPK8 (JNK1).

The target of the next assay is T10, CLK2 (Homo sapiens, UniProt P49760).
T10 construct: purchased Life Technologies Corporation
T10 sequence (P49760 whole entry): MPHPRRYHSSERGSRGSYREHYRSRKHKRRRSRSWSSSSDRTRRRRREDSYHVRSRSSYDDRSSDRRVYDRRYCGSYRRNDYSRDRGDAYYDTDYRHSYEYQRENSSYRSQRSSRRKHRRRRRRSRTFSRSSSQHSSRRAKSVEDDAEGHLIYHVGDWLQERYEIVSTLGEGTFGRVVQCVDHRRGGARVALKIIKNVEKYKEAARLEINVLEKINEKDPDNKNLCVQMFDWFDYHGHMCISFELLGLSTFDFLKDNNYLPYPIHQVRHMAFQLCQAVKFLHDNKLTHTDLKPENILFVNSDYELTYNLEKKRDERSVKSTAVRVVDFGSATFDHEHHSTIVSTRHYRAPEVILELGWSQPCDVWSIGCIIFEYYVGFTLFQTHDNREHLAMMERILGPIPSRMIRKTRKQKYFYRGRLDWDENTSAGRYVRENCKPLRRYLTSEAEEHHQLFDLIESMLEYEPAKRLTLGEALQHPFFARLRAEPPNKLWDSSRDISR
The assay can be described thus: Kinase selectivity, Z'-LYTE platform. The settings on record: 1 micromolar compound, read-out: percent inhibition CLK2.

The target in a further assay is T11, BRAF V599E (Homo sapiens, UniProt P15056, V600E).
T11 construct: purchased Life Technologies Corporation
The assay can be described thus: Kinase selectivity, Z'-LYTE platform. The settings on record: 1 micromolar compound, read-out: percent inhibition BRAF V599E.

T1 sequence (Q5S007 970-2527 G2019S): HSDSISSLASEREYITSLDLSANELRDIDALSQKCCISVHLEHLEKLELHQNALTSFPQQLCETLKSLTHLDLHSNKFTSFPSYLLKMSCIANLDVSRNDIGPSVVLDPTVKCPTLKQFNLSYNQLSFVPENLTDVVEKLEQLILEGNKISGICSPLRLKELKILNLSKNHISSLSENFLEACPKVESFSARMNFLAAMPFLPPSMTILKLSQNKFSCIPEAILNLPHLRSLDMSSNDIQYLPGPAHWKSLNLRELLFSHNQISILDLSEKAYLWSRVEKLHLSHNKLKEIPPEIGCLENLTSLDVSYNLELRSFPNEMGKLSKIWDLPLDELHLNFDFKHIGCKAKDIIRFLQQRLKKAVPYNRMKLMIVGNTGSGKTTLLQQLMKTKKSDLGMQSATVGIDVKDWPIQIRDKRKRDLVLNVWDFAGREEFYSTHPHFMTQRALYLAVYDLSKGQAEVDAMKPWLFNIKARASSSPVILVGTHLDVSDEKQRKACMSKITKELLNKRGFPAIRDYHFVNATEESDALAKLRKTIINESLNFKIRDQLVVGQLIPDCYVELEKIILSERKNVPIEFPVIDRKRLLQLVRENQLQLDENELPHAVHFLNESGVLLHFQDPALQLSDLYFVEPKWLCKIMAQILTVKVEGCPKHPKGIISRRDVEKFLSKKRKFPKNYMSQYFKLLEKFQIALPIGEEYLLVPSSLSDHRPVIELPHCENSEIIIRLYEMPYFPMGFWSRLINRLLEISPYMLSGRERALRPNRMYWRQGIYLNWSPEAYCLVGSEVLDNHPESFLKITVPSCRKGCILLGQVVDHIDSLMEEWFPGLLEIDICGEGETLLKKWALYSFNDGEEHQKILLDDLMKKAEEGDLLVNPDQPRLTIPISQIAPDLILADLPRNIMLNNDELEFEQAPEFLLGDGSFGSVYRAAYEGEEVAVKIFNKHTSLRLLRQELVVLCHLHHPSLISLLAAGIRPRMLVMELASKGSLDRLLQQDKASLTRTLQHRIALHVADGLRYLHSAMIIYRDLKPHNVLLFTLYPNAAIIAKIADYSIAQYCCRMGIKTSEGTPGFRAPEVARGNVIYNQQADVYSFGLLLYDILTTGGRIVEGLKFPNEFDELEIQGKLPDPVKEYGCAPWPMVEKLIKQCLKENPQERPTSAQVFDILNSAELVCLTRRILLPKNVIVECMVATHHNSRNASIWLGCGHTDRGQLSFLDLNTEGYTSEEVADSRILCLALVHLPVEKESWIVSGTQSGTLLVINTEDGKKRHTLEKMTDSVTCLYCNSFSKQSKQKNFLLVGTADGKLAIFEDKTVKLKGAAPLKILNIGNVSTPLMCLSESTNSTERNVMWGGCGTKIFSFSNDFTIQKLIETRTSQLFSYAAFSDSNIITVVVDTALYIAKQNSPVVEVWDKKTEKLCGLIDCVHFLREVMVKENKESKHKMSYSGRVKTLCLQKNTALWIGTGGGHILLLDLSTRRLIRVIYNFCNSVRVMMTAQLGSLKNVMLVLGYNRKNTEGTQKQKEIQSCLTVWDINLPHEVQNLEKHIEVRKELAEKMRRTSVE
T9 sequence (P45983 whole entry): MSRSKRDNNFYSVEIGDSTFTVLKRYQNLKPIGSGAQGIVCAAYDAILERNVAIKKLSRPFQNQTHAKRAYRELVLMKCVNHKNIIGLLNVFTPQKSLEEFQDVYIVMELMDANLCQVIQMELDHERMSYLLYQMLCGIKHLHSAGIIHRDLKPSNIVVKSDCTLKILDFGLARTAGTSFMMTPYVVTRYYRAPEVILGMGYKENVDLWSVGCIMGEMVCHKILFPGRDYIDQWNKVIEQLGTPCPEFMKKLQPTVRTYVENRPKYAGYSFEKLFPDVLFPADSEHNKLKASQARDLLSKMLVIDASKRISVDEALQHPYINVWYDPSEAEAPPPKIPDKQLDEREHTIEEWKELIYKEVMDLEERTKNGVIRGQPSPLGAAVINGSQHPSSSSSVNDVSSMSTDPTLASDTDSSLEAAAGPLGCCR
T7 sequence (P28482 whole entry): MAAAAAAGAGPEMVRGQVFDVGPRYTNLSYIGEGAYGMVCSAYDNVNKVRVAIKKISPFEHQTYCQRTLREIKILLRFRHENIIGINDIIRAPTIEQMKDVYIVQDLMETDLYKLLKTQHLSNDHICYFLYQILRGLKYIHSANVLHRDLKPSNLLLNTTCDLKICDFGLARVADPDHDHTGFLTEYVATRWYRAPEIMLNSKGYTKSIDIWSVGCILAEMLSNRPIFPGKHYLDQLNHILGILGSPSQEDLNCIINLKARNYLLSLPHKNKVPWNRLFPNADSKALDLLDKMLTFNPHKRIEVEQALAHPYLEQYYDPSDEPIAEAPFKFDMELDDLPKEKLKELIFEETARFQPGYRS
T6 sequence (O96017 whole entry): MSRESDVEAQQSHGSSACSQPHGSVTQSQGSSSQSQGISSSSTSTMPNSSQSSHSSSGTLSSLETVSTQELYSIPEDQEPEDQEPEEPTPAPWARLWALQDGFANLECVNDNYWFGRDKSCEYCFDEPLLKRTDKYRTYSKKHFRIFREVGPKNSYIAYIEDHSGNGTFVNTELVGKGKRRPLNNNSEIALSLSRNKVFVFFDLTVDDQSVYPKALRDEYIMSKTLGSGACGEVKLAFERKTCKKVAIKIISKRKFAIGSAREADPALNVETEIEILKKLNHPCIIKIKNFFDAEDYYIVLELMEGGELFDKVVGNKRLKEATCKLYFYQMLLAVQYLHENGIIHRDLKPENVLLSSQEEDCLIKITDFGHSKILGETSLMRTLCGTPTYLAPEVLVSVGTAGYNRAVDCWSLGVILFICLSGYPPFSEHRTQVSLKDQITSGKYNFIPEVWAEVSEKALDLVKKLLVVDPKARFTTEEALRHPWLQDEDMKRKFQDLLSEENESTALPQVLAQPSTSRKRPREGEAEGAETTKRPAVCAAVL

The term IC50 denotes the concentration needed to halve the response being measured. High values mean lower potency, low ones higher potency. On to `CCc1nnc2n1CCN(c1cc(-c3n[nH]c4ccc(OC5CC5)cc34)ccn1)C2` [Example 23], for which the IC50 in [1] came to 12 nM; in assay [2], 297 nM.

On to `c1cc(-c2n[nH]c3ccc(OC4CC4)cc23)cc(N2CCN(C3CC3)CC2)n1` [Example 26], for which the results for the IC50 in assay [1] and in [2] were 12 nM and 300 nM, respectively.

Turning to `c1cc(-c2n[nH]c3ccc(OC4CC4)cc23)cc(N2CCC2)n1` [Example 9], the IC50 in assay [1] was found to be 16 nM; in [2], 225 nM.

For `C[C@H]1CN(c2cc(-c3n[nH]c4ccc(OC5(C)CC5)cc34)ccn2)CCO1` [Example 28], the inhibition at 1 µM at AURKB (Aurora B) is 11%; at IRAK1, -5%; at JAK3, 49%; at CDK1/cyclin B, 25%; at CHEK2 (CHK2), 4%; at MAPK1 (ERK2), 23%. For the same compound, the inhibition at 1 µM worked out at 2% on DYRK1A, 58% at MAPK8 (JNK1), 42% on CLK2 and 19% at BRAF V599E. The compound also gave an IC50 in [1] of 0.6 nM.
